≈ marks a conversion by molar mass, not a printed value.
What was measured:
KB = experiment: Cytotoxicity in human epidermoid carcinoma of the nasopharynx(KB) cells; assay type: functional, cell-based
P388 = experiment: Cytotoxicity in murine lymphocytic leukemia (P388) cells; assay type: functional, cell-based; settings: Mus musculus
Mus musculus [1] = experiment: Antitumor activity against P388 leukemia cells was determined in mice at a dose 0.4 mg/kg administered i.p. on days 1-5; assay type: functional; settings: route intraperitoneal
Mus musculus [2] = experiment: Antitumor activity against P388 leukemia cells was determined in mice at a dose 1.6 mg/kg administered i.p. on days 1-5; assay type: functional; settings: route intraperitoneal
Mus musculus [3] = experiment: Antitumor activity against P388 leukemia cells was determined in mice at a dose 6.25 mg/kg administered i.p. on days 1-5; assay type: functional; settings: route intraperitoneal
Mus musculus [4] = experiment: Antitumor activity against P388 leukemia cells was determined in mice at a dose 25.0 mg/kg administered i.p. on days 1-5; assay type: functional; settings: route intraperitoneal
Mus musculus [5] = experiment: Antitumor activity against P388 leukemia cells was determined in mice at a dose 12.5 mg/kg administered i.p. on days 1-5; assay type: functional; settings: route intraperitoneal
Mus musculus [6] = experiment: Antitumor activity against P388 leukemia cells was determined in mice at a dose 6.25 mg/kg administered i.p. on days 1-5; Toxic; assay type: functional, organism-based; set-up: dose 6.25 mg/kg
Mus musculus [7] = experiment: Antitumor activity against P388 leukemia cells was determined in mice at a dose 0.8 mg/kg administered i.p. on days 1-5; assay type: functional; settings: route intraperitoneal
Mus musculus [8] = experiment: Antitumor activity against P388 leukemia cells was determined in mice at a dose 3.13 mg/kg administered i.p. on days 1-5; assay type: functional; settings: route intraperitoneal

SMILES	IC50 (KB)	IC50 (P388)	T/C (Mus musculus [1])	T/C (Mus musculus [2])	T/C (Mus musculus [3])	other results
CCCCN1C(=O)[C@@H](C)NC(=O)[C@@H]2Cc3ccc(OC)c(c3)Oc3ccc(cc3)C[C@@H](C(=O)N2C)N(C)C(=O)[C@H](C)NC(=O)[C@H](Cc2ccc(OC)cc2)N(C)C(=O)[C@@H]1C	0.024 µg/mL (≈ 0.029 µM)	0.01 µg/mL (≈ 0.0121 µM)	–	–	–	–
C/C=C/CN1C(=O)[C@@H](C)NC(=O)[C@@H]2Cc3ccc(OC)c(c3)Oc3ccc(cc3)C[C@@H](C(=O)N2C)N(C)C(=O)[C@H](C)NC(=O)[C@H](Cc2ccc(OC)cc2)N(C)C(=O)[C@@H]1C	0.018 µg/mL (≈ 0.0218 µM)	0.0076 µg/mL (≈ 0.00921 µM)	112%	127%	155%	–
CC/C=C/CN1C(=O)[C@@H](C)NC(=O)[C@@H]2Cc3ccc(OC)c(c3)Oc3ccc(cc3)C[C@@H](C(=O)N2C)N(C)C(=O)[C@H](C)NC(=O)[C@H](Cc2ccc(OC)cc2)N(C)C(=O)[C@@H]1C	0.022 µg/mL (≈ 0.0262 µM)	0.01 µg/mL (≈ 0.0119 µM)	113%	125%	155%	–
CCN1C(=O)[C@@H](C)NC(=O)[C@@H]2Cc3ccc(OC)c(c3)Oc3ccc(cc3)C[C@@H](C(=O)N2C)N(C)C(=O)[C@H](C)NC(=O)[C@H](Cc2ccc(OC)cc2)N(C)C(=O)[C@@H]1C	0.035 µg/mL (≈ 0.0438 µM)	0.035 µg/mL (≈ 0.0438 µM)	–	–	–	–
COc1ccc(C[C@H]2C(=O)N[C@@H](C)C(=O)N(C)[C@H]3Cc4ccc(cc4)Oc4cc(ccc4OC)C[C@@H](C(=O)N[C@H](C)C(=O)N(C)[C@@H](C)C(=O)N2C)N(C)C3=O)cc1	0.0077 µg/mL (≈ 0.00981 µM)	0.0012 µg/mL (≈ 0.00153 µM)	–	–	–	–
COc1ccc(C[C@H]2C(=O)N[C@@H](C)C(=O)N(C)[C@H]3Cc4ccc(cc4)Oc4cc(ccc4OC)C[C@@H](C(=O)N[C@H](C)C(=O)N(C/C=C/c4ccccc4)[C@@H](C)C(=O)N2C)N(C)C3=O)cc1	0.03 µg/mL (≈ 0.0338 µM)	0.0094 µg/mL (≈ 0.0106 µM)	–	–	–	–
COc1ccc(C[C@H]2C(=O)N[C@@H](C)C(=O)N(C)[C@H]3Cc4ccc(cc4)Oc4cc(ccc4OC)C[C@@H](C(=O)N[C@H](C)C(=O)N(C/C=C(\C)CCC=C(C)C)[C@@H](C)C(=O)N2C)N(C)C3=O)cc1	0.062 µg/mL (≈ 0.0683 µM)	0.044 µg/mL (≈ 0.0485 µM)	119%	131%	148%	T/C (Mus musculus [4]): 164%
COc1ccc(C[C@H]2C(=O)N[C@@H](C)C(=O)N(C)[C@H]3Cc4ccc(cc4)Oc4cc(ccc4OC)C[C@@H](C(=O)N[C@H](C)C(=O)N(CC=C(C)C)[C@@H](C)C(=O)N2C)N(C)C3=O)cc1	0.0064 µg/mL (≈ 0.00763 µM)	0.0058 µg/mL (≈ 0.00691 µM)	123%	132%	160%	T/C (Mus musculus [5]): 174%
C=CCN1C(=O)[C@@H](C)NC(=O)[C@@H]2Cc3ccc(OC)c(c3)Oc3ccc(cc3)C[C@@H](C(=O)N2C)N(C)C(=O)[C@H](C)NC(=O)[C@H](Cc2ccc(OC)cc2)N(C)C(=O)[C@@H]1C	0.013 µg/mL (≈ 0.016 µM)	0.015 µg/mL (≈ 0.0185 µM)	–	–	–	–
CCCCCN1C(=O)[C@@H](C)NC(=O)[C@@H]2Cc3ccc(OC)c(c3)Oc3ccc(cc3)C[C@@H](C(=O)N2C)N(C)C(=O)[C@H](C)NC(=O)[C@H](Cc2ccc(OC)cc2)N(C)C(=O)[C@@H]1C	0.063 µg/mL (≈ 0.0749 µM)	0.018 µg/mL (≈ 0.0214 µM)	–	–	–	–
CCCN1C(=O)[C@@H](C)NC(=O)[C@@H]2Cc3ccc(OC)c(c3)Oc3ccc(cc3)C[C@@H](C(=O)N2C)N(C)C(=O)[C@H](C)NC(=O)[C@H](Cc2ccc(OC)cc2)N(C)C(=O)[C@@H]1C	0.0097 µg/mL (≈ 0.0119 µM)	0.0032 µg/mL (≈ 0.00394 µM)	–	–	–	–
C=C(C)CN1C(=O)[C@@H](C)NC(=O)[C@@H]2Cc3ccc(OC)c(c3)Oc3ccc(cc3)C[C@@H](C(=O)N2C)N(C)C(=O)[C@H](C)NC(=O)[C@H](Cc2ccc(OC)cc2)N(C)C(=O)[C@@H]1C	0.027 µg/mL (≈ 0.0327 µM)	0.009 µg/mL (≈ 0.0109 µM)	–	–	–	–
COc1ccc(C[C@H]2C(=O)N[C@@H](C)C(=O)N(C)[C@H]3Cc4ccc(cc4)Oc4cc(ccc4OC)C[C@@H](C(=O)N[C@H](C)C(=O)N[C@@H](C)C(=O)N2C)N(C)C3=O)cc1	0.0023 µg/mL (≈ 0.00298 µM)	0.0013 µg/mL (≈ 0.00169 µM)	144%	152%	–	Activity (Mus musculus [6]): Toxic; T/C (Mus musculus [7]): 144%; T/C (Mus musculus [8]): 163%
